Laboratory results from ChEMBL document CHEMBL1148718, “Structure-activity relationship study on N-(1,2,3,4-tetrahydronaphthalen-1-yl)-4-aryl-1-piperazinehexanamides, a class of 5-HT7 receptor agents. 2” (J Med Chem, 2007).

Assays:
[1] = molecular target: 5-hydroxytryptamine receptor 7 (Rattus norvegicus, UniProt P32305); assay: Displacement of [3H]LSD from rat recombinant 5HT7 receptor expressed in HEK293 cells; assay type: cell-based
[2] = molecular target: T1, 5-hydroxytryptamine receptor 1A (Homo sapiens, UniProt P08908); assay: Displacement of [3H]8-OH-DPAT from human recombinant 5HT1A receptor expressed in HEK293 cells; assay type: cell-based
T1 sequence (P08908 whole entry): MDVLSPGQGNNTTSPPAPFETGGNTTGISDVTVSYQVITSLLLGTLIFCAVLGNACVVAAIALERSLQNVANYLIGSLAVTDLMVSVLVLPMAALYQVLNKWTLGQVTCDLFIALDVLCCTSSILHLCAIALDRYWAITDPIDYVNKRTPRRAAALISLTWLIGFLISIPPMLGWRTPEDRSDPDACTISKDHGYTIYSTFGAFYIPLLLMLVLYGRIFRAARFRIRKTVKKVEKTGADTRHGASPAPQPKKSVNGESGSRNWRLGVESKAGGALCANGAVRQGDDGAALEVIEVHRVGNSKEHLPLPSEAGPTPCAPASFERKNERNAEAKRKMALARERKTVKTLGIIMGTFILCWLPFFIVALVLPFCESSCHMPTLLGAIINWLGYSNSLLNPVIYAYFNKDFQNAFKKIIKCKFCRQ

D(2) dopamine receptor [3] = molecular target: T2, D(2) dopamine receptor (Homo sapiens, UniProt P14416); assay: Displacement of [3H]spiroperidol from human recombinant Dopamine D2 long receptor
T2 sequence (P14416 whole entry): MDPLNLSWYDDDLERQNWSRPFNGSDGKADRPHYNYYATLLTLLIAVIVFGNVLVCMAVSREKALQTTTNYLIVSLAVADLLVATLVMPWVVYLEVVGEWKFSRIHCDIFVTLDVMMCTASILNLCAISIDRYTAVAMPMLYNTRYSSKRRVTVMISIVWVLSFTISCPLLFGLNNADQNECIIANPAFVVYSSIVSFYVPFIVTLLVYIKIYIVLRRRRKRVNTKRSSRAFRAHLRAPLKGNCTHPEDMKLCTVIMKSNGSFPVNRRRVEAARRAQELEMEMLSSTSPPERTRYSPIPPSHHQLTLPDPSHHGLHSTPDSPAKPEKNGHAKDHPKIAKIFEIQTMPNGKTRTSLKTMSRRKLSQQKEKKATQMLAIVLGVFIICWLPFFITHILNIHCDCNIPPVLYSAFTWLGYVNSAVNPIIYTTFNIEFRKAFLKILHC

[4] = molecular target: 5-hydroxytryptamine receptor 2A (Rattus norvegicus, UniProt P14842); assay: Displacement of [3H]ketanserin from 5HT2A receptor in Sprague-Dawley cortex membrane; assay type: cell membranes
Sequence of 5-hydroxytryptamine receptor 2A (P14842 whole entry): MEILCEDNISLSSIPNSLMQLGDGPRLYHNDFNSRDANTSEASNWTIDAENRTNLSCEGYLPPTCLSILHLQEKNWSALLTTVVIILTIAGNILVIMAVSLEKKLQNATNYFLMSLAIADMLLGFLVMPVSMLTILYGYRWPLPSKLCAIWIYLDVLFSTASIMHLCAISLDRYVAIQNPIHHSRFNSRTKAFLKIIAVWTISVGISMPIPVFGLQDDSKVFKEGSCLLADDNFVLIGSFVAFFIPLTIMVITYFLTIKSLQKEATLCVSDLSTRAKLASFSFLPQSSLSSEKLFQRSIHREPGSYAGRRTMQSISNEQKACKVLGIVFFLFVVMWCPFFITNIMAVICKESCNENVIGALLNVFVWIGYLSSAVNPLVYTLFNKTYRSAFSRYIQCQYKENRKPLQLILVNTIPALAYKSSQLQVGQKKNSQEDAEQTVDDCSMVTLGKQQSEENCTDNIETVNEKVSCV

[5] = molecular target: T3, 5-hydroxytryptamine receptor 7 (Cavia porcellus, UniProt P50407); assay: Antagonist activity at 5HT7 receptor in guinea pig ileum assessed as effect on 4-[2-(1-methylethyl)phenyl]-N-(1,2,3,4-tetrahydronaphthalen-1-yl)-1-piperazine hexanamide mediated relaxation of substance P-induced contraction; assay type: functional, tissue-based; conditions: read-out: pA2 (converted)
T3 sequence (P50407 whole entry): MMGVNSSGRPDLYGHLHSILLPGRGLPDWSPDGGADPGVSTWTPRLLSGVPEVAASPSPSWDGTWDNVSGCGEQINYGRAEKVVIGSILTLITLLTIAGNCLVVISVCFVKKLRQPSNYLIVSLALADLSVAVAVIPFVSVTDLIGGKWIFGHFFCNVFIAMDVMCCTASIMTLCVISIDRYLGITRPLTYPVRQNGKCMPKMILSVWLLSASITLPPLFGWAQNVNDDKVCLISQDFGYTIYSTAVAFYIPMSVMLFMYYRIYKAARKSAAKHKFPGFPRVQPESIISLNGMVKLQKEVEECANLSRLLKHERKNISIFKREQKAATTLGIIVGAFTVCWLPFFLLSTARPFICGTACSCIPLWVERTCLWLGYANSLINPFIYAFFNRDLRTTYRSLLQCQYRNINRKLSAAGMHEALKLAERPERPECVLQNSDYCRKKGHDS

[6] = molecular target: T3, 5-hydroxytryptamine receptor 7; assay: Antagonist activity at 5HT7 receptor in guinea pig ileum assessed as effect on 4-(2-diphenyl)-N-(1,2,3,4-tetrahydronaphthalen-1-yl)-1-piperazine hexanamide mediated relaxation of substance P-induced contraction; assay type: functional, tissue-based; conditions: read-out: pA2 (converted)
[7] = molecular target: T3, 5-hydroxytryptamine receptor 7; assay: Antagonist activity at 5HT7 receptor in guinea pig ileum assessed as effect on 6-(4-(2-chlorophenyl)piperazine-1-yl)-N-(1,2,3,4-tetrahydronaphthalen-1-yl)hexanamide mediated relaxation of substance P-induced contraction; assay type: functional, tissue-based; conditions: read-out: pA2 (converted)
[8] = molecular target: T3, 5-hydroxytryptamine receptor 7; assay: Antagonist activity at 5HT7 receptor in guinea pig ileum assessed as effect on 3-(2-aminoethyl)-1H-indole-5-carboxamide mediated relaxation of substance P-induced contraction; assay type: functional, tissue-based; conditions: read-out: pA2 (converted)
[9] = molecular target: T3, 5-hydroxytryptamine receptor 7; assay: Antagonist activity at 5HT7 receptor in guinea pig ileum assessed as effect on 6-(4-(2-nitrophenyl)piperazin-1-yl)-N-(1,2,3,4-tetrahydronaphthalen-1-yl)hexanamide mediated relaxation of substance P-induced contraction; assay type: functional, tissue-based; conditions: read-out: pA2 (converted)
[10] = molecular target: T3, 5-hydroxytryptamine receptor 7; assay: Antagonist activity at 5HT7 receptor in guinea pig ileum assessed as effect on 4-(2-dimethylaminophenyl)-N-(1,2,3,4-tetrahydronaphthalen-1-yl)-1-piperazine hexanamide mediated relaxation of substance P-induced contraction; assay type: functional, tissue-based; conditions: read-out: pA2 (converted)
[11] = molecular target: T3, 5-hydroxytryptamine receptor 7; assay: Antagonist activity at 5HT7 receptor in guinea pig ileum assessed as effect on 6-(4-phenylpiperazin-1-yl)-N-(1,2,3,4-tetrahydronaphthalen-1-yl)hexanamide mediated relaxation of substance P-induced contraction; assay type: functional, tissue-based; conditions: read-out: pA2 (converted)
[12] = molecular target: T3, 5-hydroxytryptamine receptor 7; assay: (§1) Agonist activity at 5HT7 receptor in guinea pig ileum assessed as relaxation of substance P-induced contraction; assay type: functional, tissue-based
[13] = molecular target: 5-hydroxytryptamine receptor 7 (Cavia porcellus) (UniProt P50407); assay: as §1; assay type: functional, tissue-based
Sequence of 5-hydroxytryptamine receptor 7 (Cavia porcellus) (P50407 whole entry): as above

[14] = molecular target: T3, 5-hydroxytryptamine receptor 7; assay: Antagonist activity at 5HT7 receptor in guinea pig ileum assessed as effect on substance P-induced contraction; assay type: functional, tissue-based; conditions: read-out: pA2 (converted)
D(2) dopamine receptor [15] = molecular target: T2, D(2) dopamine receptor; assay: Displacement of [3H]spiroperidol from human recombinant Dopamine D2 long receptor […]
[16] = molecular target: 5-hydroxytryptamine receptor 2A (Rattus norvegicus) (UniProt P14842); assay: Displacement of [3H]ketanserin from 5HT2A receptor in Sprague-Dawley cortex membrane at >4000 uM; assay type: cell membranes
Sequence of 5-hydroxytryptamine receptor 2A (Rattus norvegicus) (P14842 whole entry): as the sequence (P14842 whole entry) above

[17] = Selectivity for rat 5HT7 over human 5HT1A
[18] = Ratio of Ki for human Dopamine D2L receptor to Ki for rat 5HT7 receptor

Sequence of 5-hydroxytryptamine receptor 7 (Rattus norvegicus, UniProt P32305) (P32305 whole entry): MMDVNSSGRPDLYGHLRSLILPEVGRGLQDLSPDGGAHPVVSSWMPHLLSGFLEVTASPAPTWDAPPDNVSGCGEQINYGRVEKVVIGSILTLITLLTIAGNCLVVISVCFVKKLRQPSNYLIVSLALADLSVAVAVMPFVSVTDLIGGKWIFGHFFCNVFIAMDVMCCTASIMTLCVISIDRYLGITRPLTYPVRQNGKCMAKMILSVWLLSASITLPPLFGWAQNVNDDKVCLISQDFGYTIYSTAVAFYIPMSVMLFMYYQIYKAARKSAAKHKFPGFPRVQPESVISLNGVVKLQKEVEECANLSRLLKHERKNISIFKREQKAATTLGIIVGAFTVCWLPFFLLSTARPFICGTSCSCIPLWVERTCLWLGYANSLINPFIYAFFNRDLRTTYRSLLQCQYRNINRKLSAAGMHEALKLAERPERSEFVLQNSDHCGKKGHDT

Ki [1]	Ki [2]	Ki (D(2) dopamine receptor [3])	Ki [4]	SMILES	also measured
7.1 nM	79.2 nM	173 nM	3370 nM	CCc1ccccc1N1CCN(CCCCCC(=O)NC2CCCc3ccccc32)CC1 (stereo not given)	
				CC1CCN(CC[C@H]2CCCN2S(=O)(=O)c2cccc(O)c2)CC1	Kb [5]: 8.91 nM; Kb [6]: 14.5 nM; Kb [7]: 3.98 nM; Kb [8]: 33.1 nM; Kb [9]: 6.31 nM; Kb [10]: 12.6 nM; Kb [11]: 7.94 nM
131 nM	29.2 nM	292 nM	194 nM	O=C(CCCCCN1CCN(c2ccccc2F)CC1)NC1CCCc2ccccc21 (stereo not given)	
49.6 nM	168 nM	123 nM	3190 nM	CCCc1ccccc1N1CCN(CCCCCC(=O)NC2CCCc3ccccc32)CC1 (stereo not given)	
		7.3 nM		CSc1ccccc1N1CCN(CCCCCC(=O)NC2CCCc3ccccc32)CC1 (stereo not given)	
		68 nM		CC(=O)c1ccccc1N1CCN(CCCCCC(=O)NC2CCCc3ccccc32)CC1 (stereo not given)	
25.4 nM	133 nM	107 nM	1590 nM	CNc1ccccc1N1CCN(CCCCCC(=O)NC2CCCc3ccccc32)CC1 (stereo not given)	%max [13]: 0%; Kb [14]: 20 nM
338 nM	2500 nM	> 1000 nM	3520 nM	CC(=O)Nc1ccccc1N1CCN(CCCCCC(=O)NC2CCCc3ccccc32)CC1 (stereo not given)	inhibition (D(2) dopamine receptor [15]): 35%
		1000 nM		O=C(CCCCCN1CCN(c2ccccc2)CC1)NC1CCCc2ccccc21 (stereo not given)	EC50 [12]: 8000 nM; %max [13]: 40%
		> 1000 nM		NC(=O)c1ccccc1N1CCN(CCCCCC(=O)NC2CCCc3ccccc32)CC1 (stereo not given)	inhibition (D(2) dopamine receptor [15]): 32%; inhibition [16]: 9%
8030 nM	194 nM			O=C(CCCCCN1CCN(c2cccc[n+]2[O-])CC1)NC1CCCc2ccccc21 (stereo not given)	
		265 nM		N#Cc1ccccc1N1CCN(CCCCCC(=O)NC2CCCc3ccccc32)CC1 (stereo not given)	
		26.4 nM		COc1ccccc1N1CCN(CCCCCC(=O)NC2CCCc3ccccc32)CC1 (stereo not given)	
		51 nM		O=C(CCCCCN1CCN(c2ccccc2Cl)CC1)NC1CCCc2ccccc21 (stereo not given)	EC50 [12]: 17000 nM; %max [13]: 13%
		> 1000 nM		CS(=O)(=O)c1ccccc1N1CCN(CCCCCC(=O)NC2CCCc3ccccc32)CC1 (stereo not given)	inhibition (D(2) dopamine receptor [15]): 32%; inhibition [16]: 38%
278 nM	36.4 nM	> 1000 nM	535 nM	O=C(CCCCCN1CCN(c2ccccn2)CC1)NC1CCCc2ccccc21 (stereo not given)	inhibition (D(2) dopamine receptor [15]): 15%
538 nM	1200 nM	> 1000 nM		CC(C)(C)c1ccccc1N1CCN(CCCCCC(=O)NC2CCCc3ccccc32)CC1 (stereo not given)	inhibition (D(2) dopamine receptor [15]): 38%
0.13 nM	60.9 nM	224 nM	1460 nM	O=C(CCCCCN1CCN(c2ccccc2-c2ccccc2)CC1)NC1CCCc2ccccc21 (stereo not given)	Selectivity ratio [17]: > 100; EC50 [12]: 1770 nM; %max [13]: 74%; Ratio Ki [18]: 1720
0.9 nM	112 nM	32 nM	559 nM	CN(C)c1ccccc1N1CCN(CCCCCC(=O)NC2CCCc3ccccc32)CC1 (stereo not given)	Selectivity ratio [17]: > 100; EC50 [12]: 1170 nM; %max [13]: 100%
1.1 nM	167 nM	15 nM	4820 nM	CC(C)c1ccccc1N1CCN(CCCCCC(=O)NC2CCCc3ccccc32)CC1 (stereo not given)	Selectivity ratio [17]: > 100; EC50 [12]: 900 nM; %max [13]: 83%
8180 nM	415 nM			Nc1ccccc1N1CCN(CCCCCC(=O)NC2CCCc3ccccc32)CC1 (stereo not given)	
2810 nM	60 nM	60 nM		CCCCc1ccccc1N1CCN(CCCCCC(=O)NC2CCCc3ccccc32)CC1 (stereo not given)	
		987 nM		O=C(CCCCCN1CCN(c2ccccc2O)CC1)NC1CCCc2ccccc21 (stereo not given)	
4250 nM		> 1000 nM		CS(=O)(=O)Nc1ccccc1N1CCN(CCCCCC(=O)NC2CCCc3ccccc32)CC1 (stereo not given)	inhibition (D(2) dopamine receptor [15]): 28%
		143 nM		Cc1ccccc1N1CCN(CCCCCC(=O)NC2CCCc3ccccc32)CC1 (stereo not given)	
		681 nM		O=C(CCCCCN1CCN(c2ccccc2[N+](=O)[O-])CC1)NC1CCCc2ccccc21 (stereo not given)	EC50 [12]: 10000 nM; %max [13]: 24%

SMILES	Ki [1]	Ki [2]	Ki (D(2) dopamine receptor [3])	Ki [4]	also measured
NCCc1c[nH]c2ccc(C(N)=O)cc12	0.5 nM				EC50 [12]: 630 nM; %max [13]: 100%
